In patent publication US20200306210A1 (ZOGENIX INTERNATIONAL LIMITED, priority 2017, published 2020):

Tests used:
Dravet syndrome patients [1] = conditions: Dravet syndrome (Devinsky, NEJM 2017); cited from earlier work
[2] = system: children and young adults with Dravet syndrome; test: Study 1: Clinical Global Impression of Improvement (CGI-I); type: in vivo, Human; conditions: either 0.2 or 0.8 mg/kg/day dose
Procedure: CGI-S and CGI-I ratings were made by clinical investigators and parent/caregivers in a series of phase III trials of fenfluramine. CGI changes were measured in two randomized, controlled trials with results reported herein. Study 1 was conducted as described in Example 1 and CGI ratings were made according to a set schedule of visits made to the clinic. Tables of results and bar graphs of the statistical analyses of CGI ratings for Study 1 at visit twelve (day 113) are provided in FIGS. 1-4. […] Similar results were obtained with investigator CGI-I rating.
In Study 1, subjects were assessed using Clinical Global Impression (CGI), allowing the parent/caregiver and principal investigator to assess improvement, as well as the Quality of Life in Childhood Epilepsy (QOLCE) Scale and the Pediatric Quality of Life Inventory (PedsQL) to measure changes in the quality of life of the subject. Comparisons between treatment groups were made using Wilcoxon rank sum tests.
(§1) The CGI scale measures the change in the subject's clinical status from a specific point in time, i.e., the Baseline Period (and also referred to as the CGI-S, an initial ranking of severity). The CGI rating scale permits a global evaluation of the subject's improvement over time.

[3] = system: subjects with Dravet syndrome; test: Study 1503: open-label long-term extension, CGI-I at baseline and final visit; type: in vivo, Human; conditions: OLE Final Visit
Procedure: Study 1503 was an open-label, long-term safety study of ZX008 in subjects with Dravet syndrome who successfully completed 14 weeks of treatment in 1501, 1502, or 1504 Cohorts 1 and 2. […] CGI-S(baseline scores) were determined at entry into 1503 (i.e., after completing a blinded 16 week trial) and then again at each patient's final visit. FIGS. 7 and 8, and Tables 3 and 4 present numbers of patients having each of the 7 ratings and statistical calculations of improvements.
as §1

Dravet syndrome patients [4] = conditions: cited from earlier work
[5] = target: serotonin 5-HT2B receptor (Homo sapiens, UniProt P41595); conditions: cited from earlier work
Sequence of serotonin 5-HT2B receptor (P41595 whole entry): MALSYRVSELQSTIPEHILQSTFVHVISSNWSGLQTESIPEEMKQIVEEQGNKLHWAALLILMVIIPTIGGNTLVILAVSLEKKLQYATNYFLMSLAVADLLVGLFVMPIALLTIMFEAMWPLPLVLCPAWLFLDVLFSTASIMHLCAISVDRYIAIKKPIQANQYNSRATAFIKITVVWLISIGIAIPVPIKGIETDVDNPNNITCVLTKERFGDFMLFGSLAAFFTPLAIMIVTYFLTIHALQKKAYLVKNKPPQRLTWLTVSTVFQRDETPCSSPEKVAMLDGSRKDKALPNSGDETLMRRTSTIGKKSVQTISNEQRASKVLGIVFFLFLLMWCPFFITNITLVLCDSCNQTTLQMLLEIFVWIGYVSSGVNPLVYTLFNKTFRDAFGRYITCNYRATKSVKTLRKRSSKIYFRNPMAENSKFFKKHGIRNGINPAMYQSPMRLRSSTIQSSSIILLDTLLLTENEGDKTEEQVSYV

[6] = target: T1, serotonin 5-HT2C receptor (Homo sapiens, UniProt P28335); conditions: cited from earlier work
T1 sequence (P28335 33-458): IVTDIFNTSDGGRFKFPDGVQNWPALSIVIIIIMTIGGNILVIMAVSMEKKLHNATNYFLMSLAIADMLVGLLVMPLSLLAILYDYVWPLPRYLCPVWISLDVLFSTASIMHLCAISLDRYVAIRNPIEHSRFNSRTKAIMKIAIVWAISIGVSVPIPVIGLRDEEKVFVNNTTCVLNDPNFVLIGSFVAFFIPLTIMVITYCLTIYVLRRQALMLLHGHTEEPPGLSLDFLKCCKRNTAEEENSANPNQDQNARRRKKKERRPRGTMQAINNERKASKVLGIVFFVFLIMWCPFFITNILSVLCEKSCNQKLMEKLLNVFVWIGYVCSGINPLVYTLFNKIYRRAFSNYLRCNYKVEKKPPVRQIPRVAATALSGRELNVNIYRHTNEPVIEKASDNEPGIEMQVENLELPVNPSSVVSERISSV

[7] = target: serotonin 5-HT2A receptor (Homo sapiens, UniProt P28223); conditions: cited from earlier work
Sequence of serotonin 5-HT2A receptor (P28223 whole entry): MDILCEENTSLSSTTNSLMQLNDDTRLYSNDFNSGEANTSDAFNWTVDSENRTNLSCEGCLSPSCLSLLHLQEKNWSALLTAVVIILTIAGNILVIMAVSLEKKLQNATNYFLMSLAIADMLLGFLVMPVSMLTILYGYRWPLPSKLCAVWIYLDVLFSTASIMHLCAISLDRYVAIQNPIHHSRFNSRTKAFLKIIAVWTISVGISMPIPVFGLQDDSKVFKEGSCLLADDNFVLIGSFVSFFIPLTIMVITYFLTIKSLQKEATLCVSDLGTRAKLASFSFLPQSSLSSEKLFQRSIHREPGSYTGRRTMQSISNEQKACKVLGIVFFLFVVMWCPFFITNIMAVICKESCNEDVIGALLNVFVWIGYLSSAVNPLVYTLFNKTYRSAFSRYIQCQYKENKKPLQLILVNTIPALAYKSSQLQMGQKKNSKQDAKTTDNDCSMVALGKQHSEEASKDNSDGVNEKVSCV

C=C(C)[C@@H]1CCC(C)=C[C@H]1c1c(O)cc(CCCCC)cc1O [cannabidiol]
Cognitive function, active treatment groups vs placebo (Dravet syndrome patients [1]): did not achieve significant difference from placebo

CCNC(C)Cc1cccc(C(F)(F)F)c1 (racemic) [fenfluramine, (RS)—N-ethyl-1-[3-(trifluoromethyl)phenyl]propan-2-amine, reference compound]
Parents/caregivers rating their children 'very much improved' or 'much improved' (CGI-I) vs placebo group [2]: Significantly more | CGI-I investigator, Improved (1, 2, 3), % [3]: 85.4% | CGI-I investigator, Much/very much improved (1, 2), % [3]: 64.2% | CGI-I parent/caregiver, Improved (1, 2, 3), % [3]: 82.3% | CGI-I parent/caregiver, Much/very much improved (1, 2), % [3]: 62.5%

CC(C)(C)C(O)/C=C/c1ccc2c(c1)OCO2 (stereo not shown) [Stiripentol, stiripentol]
Reduction of tonic-clonic seizure rate (Dravet syndrome patients [4]): 70%

CC(N)Cc1cccc(C(F)(F)F)c1 (stereo not shown) [norfenfluramine]
Binds to and activates serotonin 5-HT2B receptor, affinity [5]: high affinity | Binds to and activates serotonin 5-HT2C receptor, affinity [6]: high affinity | Binds to and activates serotonin 5-HT2A receptor, affinity [7]: moderate affinity
